We go through 1 compound from US20200115698A1, “PHARMACEUTICAL COMBINATION FOR TREATMENT OF FABRY DISEASE AND USE THEREOF” (MEIJI PHARMACEUTICAL UNIVERSITY, priority 2017, published 2020).

The structures appear in SMILES notation.

One assay has as its target T1, α-NAGA mutant (Homo sapiens, UniProt P17050, A191L/S188E).
T1 sequence (P17050 with tags, fused parts or gaps S188E/A191L): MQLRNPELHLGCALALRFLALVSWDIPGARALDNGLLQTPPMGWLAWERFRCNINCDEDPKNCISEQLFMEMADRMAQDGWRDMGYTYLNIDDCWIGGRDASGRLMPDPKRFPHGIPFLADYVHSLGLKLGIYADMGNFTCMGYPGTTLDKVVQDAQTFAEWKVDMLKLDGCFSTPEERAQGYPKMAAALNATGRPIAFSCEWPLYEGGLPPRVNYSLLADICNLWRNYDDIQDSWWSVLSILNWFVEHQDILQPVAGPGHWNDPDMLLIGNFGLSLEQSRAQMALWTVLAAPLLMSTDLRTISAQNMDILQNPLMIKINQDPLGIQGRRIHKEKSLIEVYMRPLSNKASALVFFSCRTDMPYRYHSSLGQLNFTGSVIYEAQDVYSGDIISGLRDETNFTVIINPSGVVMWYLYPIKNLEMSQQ
The experiment in a line: Screening of inhibitor (2): inhibition of enzyme activity of α-NAGA mutant. The following applies: 0.1, 1, or 10 μM compound, pH 4.6, 37° C., 30 minutes; FIG. 1. The class given is biochemical. As to the method: The second screening was carried out as follows: DGJ, GBS, N-C-DGJ, N-DGJ, or N-HE-DGJ dissolved in purified water or DMSO was added to 25 ng of an α-NAGA mutant and 4 mM 4-methylumbelliferylα-D-galactopyranoside dissolved in 0.1 M phosphate-citrate buffer (pH 4.6) such that a concentration of DGJ, GBS, N-C-DGJ, N-DGJ, or N-HE-DGJ became 0.1, 1, or 10 μM, and the mixture thus obtained was caused to react at 37° C. for 30 minutes (the total amount was 50 μl). After the reaction was finished, 950 μl of 0.2 M glycine buffer (pH 10.7) was added to stop the reaction. Then, released 4-methylumbelliferone was measured at an excitation wavelength of 355 nm and at a fluorescence wavelength of 460 nm with use of Wallac 1420 ARVO MX Multilabel Counter. Remaining enzyme activity was calculated based on the assumption that an enzyme activity value obtained in a case where purified water or DMSO is added instead of the inhibitor candidate compound is 100%. FIG. 1 is a view illustrating inhibition of enzyme activity of an α-NAGA mutant by DGJ.

In assay [1] the test system is cultivated fibroblast derived from a patient of Fabry disease. The experiment in a line: Simultaneous addition of α-NAGA mutant and DGJ to cultivated fibroblast derived from patient of Fabry disease. It counts as cell-based, human. As to the method:
A cultivated fibroblast derived from a patient of Fabry disease was cultured at 37° C. under a 5% carbon dioxide environment with use of an F-10 medium to which a 10% fetal calf serum and an antibiotic substance had been added. First, concentration dependence of DGJ with respect to uptake efficiency of an α-NAGA mutant was analyzed. The cells were seeded to a 12-well plate at 1.0×10^5 cells/well. Then, the medium was exchanged with a medium containing 1 μg/mL of an α-NAGA mutant and any of concentrations (0, 1, 10, and 100 μM) of DGJ, and cultivation was carried out for 24 hours. The cells were cleaned three times with PBS, then treated with use of trypsin, and then collected. 20 mM MES (pH 6.0) containing Complete Mini (Roche) was added to the collected cells, and the cells were then subjected to an ultrasonic treatment. The homogenate thus obtained was subjected to centrifugal separation under conditions of 4° C. and 12,000 rpm, and the obtained supernatant liquid was used as samples for enzyme activity measurement, protein quantification, and Western blotting.
Next, in order to confirm time dependence, 1 μg/mL of an α-NAGA mutant and 10 μM of DGJ were added to the cells, and cultivation was carried out for 24 hours, 48 hours, and 72 hours. Then, enzyme activity measurement, protein quantification, and Western blotting were carried out. […]

For `OCC1NCC(O)C(O)C1O` [DGJ, (2R,3S,4R,5S)-2-(hydroxymethyl)piperdine-3,4,5-triol], on α-NAGA mutant, the “inhibition of enzyme activity of an α-NAGA mutant (remaining enzyme activity)” value was “had the effect of inhibiting activity of an α-NAGA mutant”. In addition, the “α-NAGA mutant enzyme activity in cells” value in assay [1] (1 μg/mL α-NAGA mutant plus 0-100 μM DGJ 24 hours, or 10 μM DGJ 24-72 hours, FIG. 6(a), 7(a)) was “enzyme activity was improved”. In assay [1] (simultaneous addition of DGJ versus no DGJ, FIG. 6(b), 7(b)), the “amount of protein of the α-NAGA mutant taken in a cell (Western blotting)” value is on record as “confirmed to be increased”.
